Source: patent US20230391796A1, “GLYCOSIDASE INHIBITORS AND USES THEREOF” (UNIVERSIDAD DE SEVILLA (US) -UNIVERSITY OF SEVILLE (US), priority 2020, published 2023)
Counter-ions that a name gives are not always drawn.

Experiments:
[1] = biological target: β-N-acetylglucosaminidase (from human placenta); test: Inhibition assay against commercial β-N-acetylglucosaminidase (human placenta), p-nitrophenyl N-acetyl-β-D-glucosaminide substrate; assay type: biochemical; conditions: pH 5.5, 37° C.; average of three determinations ± s.e.m.; read-out: Human placenta Hex
Protocol: (§1) Inhibition Assays Against Commercial β-N-acetylglucosaminidases
(§2) Inhibition constant (Ki) values were determined by spectrophotometrically measuring the residual hydrolytic activities of the glycosidases against p-nitrophenyl N-acetyl-β-D-glucosaminide. […] Each assay was performed in phosphate-citrate buffer and the reactions were initiated by addition of the enzyme to a solution of the substrate in the absence or presence of various inhibitor concentrations. The mixture was incubated for 10-30 min at 37° C. and the reaction was quenched by addition of 1 M Na2CO3. Reaction times were appropriate to obtain 10-20% conversion of the substrate in order to achieve linear rates. The absorbance of the resulting mixture was determined at 405 nm. Approximate values of Ki were determined using a fixed concentration of substrate (around the Km value for the different glycosidases) and various inhibitor concentrations. Full Ki determinations and enzyme inhibition mode were determined from the slope of Lineweaver-Burk plots and double reciprocal analysis using a Microsoft Office Excel 2007 program.

[2] = biological target: β-N-acetylglucosaminidase (from bovine kidney); test: Inhibition assay against commercial β-N-acetylglucosaminidase (bovine kidney), p-nitrophenyl N-acetyl-β-D-glucosaminide substrate; assay type: biochemical; conditions: pH 5.5, 37° C.; average of three determinations ± s.e.m.; NI = no inhibition detected at 200 μM; read-out: Bovine kidney Hex
Protocol: as §1, §2

[3] = In vivo pharmacokinetics, plasma and brain concentrations; set-up: species or system C57BL/6 mice; conditions: 3 mg/kg single dose
Protocol: Mean plasma concentration (ng/mL) of compound 4 in C57BL/6 mice after 3 mg/kg i.v. administration.
Mean brain concentration (ng/mL) of 4 in C57BL/6 mice after 3 mg/kg i.v. administration
Assay for Determination of the in vivo Pharmacokinetics.
The pharmacokinetic profiles of the compounds to be tested were evaluated in vivo in C57BL/6 mice (n=14) following a 3 mg/kg […] dose.

[4] = biological target: β-N-acetylglucosaminidase (from jack bean); test: Inhibition assay against commercial β-N-acetylglucosaminidase (jack bean), p-nitrophenyl N-acetyl-β-D-glucosaminide substrate; assay type: biochemical; conditions: pH 5.5, 37° C.; average of three determinations ± s.e.m.; NI = no inhibition detected at 200 μM; read-out: Jack beans Hex
Protocol: as §1, §2

[5] = biological target: T1, hOGA (Homo sapiens, UniProt O60502); test: Inhibition assay against hOGA, resorufin N-acetyl-β-D-glucosaminide fluorescence; assay type: biochemical; conditions: 0.2 nM hOGA, 25 μM substrate, pH 7.1; Morrison Ki
T1 sequence (O60502 1-916): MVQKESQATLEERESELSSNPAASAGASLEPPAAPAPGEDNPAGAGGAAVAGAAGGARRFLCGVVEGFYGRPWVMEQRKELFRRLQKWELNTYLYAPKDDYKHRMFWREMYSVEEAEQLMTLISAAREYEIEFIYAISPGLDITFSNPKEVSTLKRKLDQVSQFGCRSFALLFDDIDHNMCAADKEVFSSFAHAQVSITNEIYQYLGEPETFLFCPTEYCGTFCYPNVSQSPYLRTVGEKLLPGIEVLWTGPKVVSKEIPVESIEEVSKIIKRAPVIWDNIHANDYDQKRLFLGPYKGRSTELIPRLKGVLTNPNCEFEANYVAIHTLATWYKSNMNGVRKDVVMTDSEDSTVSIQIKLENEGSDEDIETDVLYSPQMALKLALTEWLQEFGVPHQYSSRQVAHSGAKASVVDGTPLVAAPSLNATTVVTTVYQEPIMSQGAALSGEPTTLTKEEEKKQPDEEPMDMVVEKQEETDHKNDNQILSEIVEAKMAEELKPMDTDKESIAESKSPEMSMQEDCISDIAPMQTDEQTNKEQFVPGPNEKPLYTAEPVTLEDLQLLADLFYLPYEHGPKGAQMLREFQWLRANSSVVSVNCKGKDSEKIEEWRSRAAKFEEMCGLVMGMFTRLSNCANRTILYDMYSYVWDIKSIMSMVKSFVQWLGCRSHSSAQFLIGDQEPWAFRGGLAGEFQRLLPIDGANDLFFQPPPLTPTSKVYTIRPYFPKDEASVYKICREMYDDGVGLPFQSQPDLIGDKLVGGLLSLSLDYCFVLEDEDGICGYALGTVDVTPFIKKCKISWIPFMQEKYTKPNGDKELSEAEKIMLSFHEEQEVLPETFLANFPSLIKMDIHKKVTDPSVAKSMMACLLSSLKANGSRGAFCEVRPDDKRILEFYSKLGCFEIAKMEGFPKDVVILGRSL
Protocol: Inhibition Assays Against hOGA
Km=25 μM was measured with these conditions. Inhibition assays were run at 0.2 nM [hOGA] in the same buffer, in the presence or absence of various concentrations of inhibitors and at a fixed substrate concentration of 25 μM and 1% DMSO. First, inhibitor was serially diluted to the desired range of concentrations in 2% DMSO buffer. Next, 50 μL of inhibitor solutions at various concentrations in 2% DMSO Buffer was added to 50 μL of 0.8 nM enzyme and allowed to incubate at 25° C. for 5 minutes. 100 uL of 50 μM and 1% DMSO substrate was then added and reaction mixture was immediately mixed and aliquoted in 45 μL triplicates to a CORNING 384 well black plate. Fluorescence signal was measured continuously for 20 minutes at 37° C. in a BioTek Neo 2 Plate reader set at excitation and emission wavelengths of 572 and 610 nm, respectively. Max reaction rates for all inhibitor concentrations were calculated within Gen5 BioTek reader software. % Activity was subsequently calculated for each inhibitor concentration against the max reaction rate of uninhibited hOGA. GraphPad Prism 2016 was used to approximate the Morrison Ki values for each inhibitor.

[6] = biological target: T2, Recombinant Human Hexosaminidase A (HexA) (Homo sapiens, UniProt P06865); test: Inhibition assay against rhHexA, 4-methylumbelliferone-N-acetyl-β-D-glucosaminide fluorescence; assay type: biochemical; conditions: IC50 for lysosomal hHexA; NI = no inhibition detected at 200 μM
T2 construct: purchased R&D Systems 6237-GH-020
T2 sequence (P06865 89-529): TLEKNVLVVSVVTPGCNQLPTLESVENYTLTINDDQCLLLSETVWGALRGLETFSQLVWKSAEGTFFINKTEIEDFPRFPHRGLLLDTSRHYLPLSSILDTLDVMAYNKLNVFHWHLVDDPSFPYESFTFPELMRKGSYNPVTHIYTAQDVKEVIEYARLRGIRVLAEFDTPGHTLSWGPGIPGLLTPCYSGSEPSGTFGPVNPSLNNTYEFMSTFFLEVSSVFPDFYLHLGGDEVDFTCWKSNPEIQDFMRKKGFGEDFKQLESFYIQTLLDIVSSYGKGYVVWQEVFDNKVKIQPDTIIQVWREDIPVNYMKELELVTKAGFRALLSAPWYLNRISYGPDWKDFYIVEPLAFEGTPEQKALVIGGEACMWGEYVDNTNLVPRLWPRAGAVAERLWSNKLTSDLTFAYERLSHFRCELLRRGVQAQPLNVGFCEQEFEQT
Protocol: Inhibition Assays Against rhHexA
Human Hexosaminidase A (HexA) enzyme, purchased from R&D Systems (cat# 6237-GH-020), were determined by measuring the fluorescent signal corresponding to the rate of hydrolytic activity against the commercially available artificial substrate, 4-Methylumbelliferone-N-acetyl-β-D-glucosaminide. HexA activity assays were performed in a buffer of 100 mM sodium citrate, 250 NaCl, pH 4.5 and 1.0 nM [HexA], then stopped after 20 minutes with a solution of 1.0 M Tris, pH 9.5 to enhance fluorescent signal. Preliminary experiments have shown that reaction rates are linear for 20 minutes after substrate addition, and that 1.0 M Tris at pH 9.5 is sufficient for stopping activity, as signal is stable after stopping. Inhibition assays were run in the presence or absence of various concentrations of inhibitors and at a fixed substrate concentration of 100 μM and 1% DMSO. First, inhibitor was serially diluted to the desired range of concentrations in 2% DMSO buffer. Next, 25 μL, of inhibitor solutions at various concentrations in 2% DMSO Buffer was added to 25 μL, of 4.0 nM enzyme and allowed to incubate at 25° C. for 5 minutes. 50 μL of 200 μM and 1% DMSO substrate was then added and allowed to react for 20 minutes. 100 μL of stop solution was added to reaction mixture, and immediately mixed and aliquoted in 45 μL triplicates to a CORNING 384 well black plate. Fluorescence signal was measured in a BioTek Neo 2 Plate reader set at excitation and emission wavelengths of 355 and 450 nm, respectively. % Activity was subsequently calculated for each inhibitor concentration against the fluorescence signal of uninhibited HexA. […]

Ki [1]: 420 ± 30 nM | Ki [2]: 460 ± 30 nM | brain concentration, start of the decrease (FIG. 2) ([3]; homogenized brain, initial value): 26 ng/g | plasma concentration, start of the decrease (FIG. 1) ([3]; plasma, initial value): 1100 ng/mL | concentration at 24 h ([3]; C57BL/6, mouse, intravenous, homogenized brain, 24 h, read-out: brain concentration after 24 h (FIG. 2)): 7.5 ng/g | concentration at 12 h ([3]; C57BL/6, mouse, intravenous, plasma, 12 h, read-out: plasma concentration after 12 h (FIG. 1)): 0.78 ng/mL | Ki [4]: 750 ± 40 nM | Ki [5]: 2.99 nM | IC50 [6]: 560 nM
SMILES: CC(=O)N[C@H]1CN2/C(=N/Cc3ccccc3)SC[C@@H]2[C@@H](O)[C@@H]1O [Compound 4, 2-Acetamido-5-N,6-S-(N′-benzyliminomethylidene)-1,2-dideoxy-6-thionojirimycin Hydrochloride]
